Measurements reported in patent US8642609B2, “Modulators of ATP-binding cassette transporters” (Vertex Pharmaceuticals Incorporated, priority 2003, dated 2014).

Biological target: T1, ΔF508-CFTR (Homo sapiens, UniProt P13569, DEL508-508)
T1 construct: expressed in transfected cells
Experiment: Membrane potential optical assay (FRET/VIPR), identification of correction compounds
Assay type: cell-based
How it was run: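 NIH3T3 cells stably expressing ΔF508-CFTR incubated 16 hrs at 37° C in serum-free medium with test compound; 27° C incubation as positive control. CFTR then activated with 10 μM forskolin plus 20 μM genistein in Cl^−-free medium; depolarization read by DiSBAC2(3)/CC2-DMPE FRET on VIPR.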

T1 sequence (P13569 with tags, fused parts or gaps DEL508-508): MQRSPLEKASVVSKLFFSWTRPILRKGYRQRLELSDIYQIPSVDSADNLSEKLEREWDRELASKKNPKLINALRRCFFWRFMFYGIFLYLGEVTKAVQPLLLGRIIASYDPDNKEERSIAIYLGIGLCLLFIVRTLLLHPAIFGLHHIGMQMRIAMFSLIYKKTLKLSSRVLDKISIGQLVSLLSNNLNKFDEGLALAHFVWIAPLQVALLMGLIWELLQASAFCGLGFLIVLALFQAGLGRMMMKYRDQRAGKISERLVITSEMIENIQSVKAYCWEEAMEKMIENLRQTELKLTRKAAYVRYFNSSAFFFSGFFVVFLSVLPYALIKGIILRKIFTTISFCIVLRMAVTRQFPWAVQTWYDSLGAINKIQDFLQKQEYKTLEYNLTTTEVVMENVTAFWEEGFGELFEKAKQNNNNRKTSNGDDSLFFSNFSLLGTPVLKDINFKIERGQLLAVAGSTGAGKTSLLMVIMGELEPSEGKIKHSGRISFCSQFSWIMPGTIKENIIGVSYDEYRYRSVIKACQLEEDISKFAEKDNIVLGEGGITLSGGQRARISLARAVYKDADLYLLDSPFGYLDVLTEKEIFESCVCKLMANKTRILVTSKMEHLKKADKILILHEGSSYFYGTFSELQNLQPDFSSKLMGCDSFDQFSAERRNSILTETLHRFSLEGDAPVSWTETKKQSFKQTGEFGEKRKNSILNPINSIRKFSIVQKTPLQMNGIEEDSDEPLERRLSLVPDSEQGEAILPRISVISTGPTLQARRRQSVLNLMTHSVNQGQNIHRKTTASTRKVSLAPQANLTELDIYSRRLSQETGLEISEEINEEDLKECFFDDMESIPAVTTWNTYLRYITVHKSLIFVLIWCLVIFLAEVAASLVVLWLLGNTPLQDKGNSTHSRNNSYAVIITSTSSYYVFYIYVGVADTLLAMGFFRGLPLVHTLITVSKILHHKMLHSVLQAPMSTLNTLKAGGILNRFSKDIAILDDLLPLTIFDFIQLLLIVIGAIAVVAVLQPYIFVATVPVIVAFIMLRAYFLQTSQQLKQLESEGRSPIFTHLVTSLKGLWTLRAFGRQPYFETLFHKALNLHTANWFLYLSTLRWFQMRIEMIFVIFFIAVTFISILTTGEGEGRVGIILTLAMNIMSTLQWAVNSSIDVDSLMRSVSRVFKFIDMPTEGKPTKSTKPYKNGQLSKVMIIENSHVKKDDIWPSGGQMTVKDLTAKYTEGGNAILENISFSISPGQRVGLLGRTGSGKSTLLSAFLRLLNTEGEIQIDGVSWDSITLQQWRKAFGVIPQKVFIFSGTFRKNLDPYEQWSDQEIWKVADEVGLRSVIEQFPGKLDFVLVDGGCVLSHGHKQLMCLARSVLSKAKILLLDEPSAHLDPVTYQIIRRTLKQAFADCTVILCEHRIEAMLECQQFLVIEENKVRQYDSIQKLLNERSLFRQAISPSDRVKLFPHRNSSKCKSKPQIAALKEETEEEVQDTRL

Row | Compound | EC50 [µM] | Emax (relative efficacy) [%] | % Efficacy (relative efficacy)
1 | COc1ccc(S(=O)(=O)N2CCN(C(C)c3nc(OC4CCCC4)c4cc(F)ccc4n3)CC2)cc1 (stereo not drawn) [compound 375] | < 10 | > 100 | 
2 | COc1ccc(S(=O)(=O)N2CCN(C(C)c3ncc(-c4ccccc4)c(N4CCCCC4)n3)CC2)cc1 (stereo not drawn) [compound 376] | < 10 | 25 to 100 | 
3 | COc1ccc(S(=O)(=O)N2CCN(C(C)c3nc4ccc(F)cc4c(=O)[nH]3)CC2)cc1 (stereo not drawn) [compound 377] | 25 to 60 | 25 to 100 | 
4 | COc1ccc(S(=O)(=O)N2CCN(C(C)c3ncc(Br)c(=O)[nH]3)CC2)cc1 (stereo not drawn) [compound 378] | 25 to 60 | < 25 | 
5 | C[C@H](c1nc(N2CCCCC2)c2ccccc2n1)N1CCN(S(=O)(=O)c2ccc(Cl)cc2)CC1 [compound 379] | < 10 | > 100 | 
6 | C[C@@H](c1nc(N2CCCCC2)c2ccccc2n1)N1CCN(S(=O)(=O)c2ccc(Cl)cc2)CC1 [compound 380] | < 10 | > 100 | 
7 | COc1ccc(S(=O)(=O)N2CCN(C(C)c3ncc(Br)c(OC4CCCC4)n3)CC2)cc1 (stereo not drawn) [compound 381] | < 10 | > 100 | 
8 | COc1ccc(S(=O)(=O)N2CCN(C(C)c3nccc(OC4CCCC4)n3)CC2)cc1 (stereo not drawn) [compound 382] | 10 to 25 | 25 to 100 | 
9 | COc1ccc(S(=O)(=O)N2CCN(Cc3nc4ccccc4c(=O)[nH]3)CC2)cc1 [compound 383] | 25 to 60 | < 25 | 
10 | COc1ccc(S(=O)(=O)N2CCN(Cc3nc(N4CCCCC4)c4ccccc4n3)CC2)cc1 [compound 384] | 10 to 25 | > 100 | 
11 | COc1ccc(S(=O)(=O)N2CCN(Cc3nc(OC4CCCCC4)c4ccccc4n3)CC2)cc1 [compound 385] | < 10 | > 100 | 
12 | COc1ccc(S(=O)(=O)N2CCN(Cc3nc(OC4CCCC4)c4ccccc4n3)CC2)cc1 [compound 386] | < 10 | > 100 | 
13 | COc1ccc(S(=O)(=O)N2CCN(C3(c4nc(N5CCCCC5)c5ccccc5n4)CC3)CC2)cc1 [compound 387] | < 10 | > 100 | 
14 | COc1ccc(S(=O)(=O)N2CCN(C(C)c3nc(N4CCCc5ccccc54)c4ccccc4n3)CC2)cc1 (stereo not drawn) [compound 388] | < 10 | > 100 | 
15 | COc1ccc(S(=O)(=O)N2CCN(C(C)c3nc(N4CCC(Cc5ccccc5)CC4)c4ccccc4n3)CC2)cc1 (stereo not drawn) [compound 389] | < 10 | > 100 | 
16 | COc1ccc(S(=O)(=O)N2CCN(C(C)c3nc(N4CCN(c5ccccc5)CC4)c4ccccc4n3)CC2)cc1 (stereo not drawn) [compound 390] | < 10 | > 100 | 
17 | COc1ccc(S(=O)(=O)N2CCN(C(C)c3nc(N4CC=CC4)c4ccccc4n3)CC2)cc1 (stereo not drawn) [compound 391] | 10 to 25 | > 100 | 
18 | COc1ccc(S(=O)(=O)N2CCN(C(C)c3nc(N4CC=CCC4)c4ccccc4n3)CC2)cc1 (stereo not drawn) [compound 392] | < 10 | > 100 | 
19 | COc1ccc(S(=O)(=O)N2CCN(C(C)c3nc(N4CCSC4)c4ccccc4n3)CC2)cc1 (stereo not drawn) [compound 393] | 10 to 25 | > 100 | 
20 | COc1ccc(S(=O)(=O)N2CCN(C(C)c3nc(N4CC[C@@H](NC(C)=O)C4)c4ccccc4n3)CC2)cc1 (stereo partly drawn) [compound 394] | 25 to 60 | 25 to 100 | 
21 | COc1ccc(S(=O)(=O)N2CCN(C(C)c3nc(N(C)CC4OCCO4)c4ccccc4n3)CC2)cc1 (stereo not drawn) [compound 395] | 10 to 25 | 25 to 100 | 
22 | COc1ccc(S(=O)(=O)N2CCN(C(C)c3nc(OC4CCCCC4)c4nccnc4n3)CC2)cc1 (stereo not drawn) [compound 396] | 10 to 25 | > 100 | 
23 | COc1ccc(S(=O)(=O)N2CCN(C(C)c3nc(OC4CCCC4)c4ccccc4n3)CC2)cc1 (stereo not drawn) [compound 397] | 10 to 25 |  | ++ (“++” means between 25% to 100%)
24 | COc1ccc(S(=O)(=O)N2CCN(C(C)c3nc(OC4CCC4)c4ccccc4n3)CC2)cc1 (stereo not drawn) [compound 398] | < 10 | > 100 | 
25 | COc1ccc(S(=O)(=O)N2CCN(C(C)c3nc(OC4CCC(C)CC4)c4ccccc4n3)CC2)cc1 (stereo not drawn) [compound 399] | < 10 | 25 to 100 | 
26 | COc1ccc(S(=O)(=O)N2CCN(C(C)c3nc(OC4CCC5CC4C5)c4ccccc4n3)CC2)cc1 (stereo not drawn) [compound 400] | < 10 | > 100 | 
27 | COc1ccc(S(=O)(=O)N2CCN(C(=O)c3nc(N4CCCCC4)c4ccccc4n3)CC2)cc1 [compound 402] | 25 to 60 | < 25 | 
28 | COc1ccc(S(=O)(=O)N2CCC(C(C)c3nc(OC4CCCC4)c4ccccc4n3)CC2)cc1 (stereo not drawn) [compound 403] | < 10 | > 100 | 
29 | COc1ccc(S(=O)(=O)N2CCC(C(C)c3nc(OC4CCCCC4)c4ccccc4n3)CC2)cc1 (stereo not drawn) [compound 404] | < 10 | > 100 | 
30 | COc1ccc(S(=O)(=O)N2CCC(C(C)c3nc4ccccc4c(=O)[nH]3)CC2)cc1 (stereo not drawn) [compound 405] | 10 to 25 | 25 to 100 | 
